The values that follow come from patent US10800790B2, “Sesquiterpenoid STAT3 inhibitors” (University of Hawaii, priority 2013, dated 2020).

The structures appear in SMILES notation. Entries after “also recorded” stand apart in the source; their conditions may differ. Where two headings read alike, the source gives them in different places.

Test [1] addresses T1, STAT3 (NIH3T3/v-Src nuclear extracts) (Mus musculus, UniProt P42227).
T1 construct: nuclear extracts prepared from v-Src-transformed mouse fibroblasts (NIH3T3/v-Src) containing active STAT3; endogenous in cells; host or cells: NIH3T3/v-Src mouse fibroblasts (nuclear extract)
Kind of test: In vitro STAT3 DNA-binding activity/EMSA, nuclear extracts incubated with compound. The class given is biochemical. The conditions noted are these: 5 micromolar, 30 min at room temperature. The method, then:
To further determine the effects of the bioactive agents on STAT3 activity, nuclear extracts prepared from v-Src-transformed mouse fibroblasts (NIH3T3/v-Src) containing active STAT3 were directly incubated with 5 micromolar compounds for 30 min at room temperature prior to performing STAT3 DNA-binding activity in vitro with EMSA analysis. […] These studies indicate that agents directly interact with STAT3 and disrupt STAT3:STAT3 dimers, thereby inhibiting its DNA-binding activity.
Data are representative of 2-3 independent determinations.
Nuclear extract preparations and DNA-binding/electrophoretic mobility shift assay (EMSA) were carried out as previously described (Xu, supra). Nuclear extract preparations and DNA-binding activity/electrophoretic mobility shift assay (EMSA) were carried out as previously described. U251 MG and MDA-MB-231 cells culture were pretreated with different concentrations of the compounds for the indicated period and then harvested for nuclear extract preparation and DNA-binding assay with EMSA analysis. The ^32P-labeled oligonucleotide probe used was hSIE (high-affinity sis-inducible element) from the c-fos gene, m67 variant (5′-[…]-3′) that binds STAT3. Except where indicated, nuclear extracts were pre-incubated with compound for 30 min at room temperature prior to incubation with the radiolabeled probe for 30 min at 30° C. before subjecting to EMSA analysis. Where appropriate, bands corresponding to DNA-binding activities were scanned and quantified for each concentration of compound using ImageJ and plotted as percent of control (vehicle) against concentration of compound, from which the IC50 values were derived.
Background: A gel shift assay detects complexes by their altered migration in electrophoresis.

In test [2] the test system is U251MG glioblastoma cells. Nature of the test: CyQuant cell viability/proliferation assay, U251MG. The class given is cell-based, human. Also noted: key to Activity against U251: +, active; −, no activity; +/−, poorly active. As to conditions: for Activity against U251: Table 1 grade, Table 1/FIG. 2 compound numbering; for Activity against the cell lines, in words: tested at 5 micromolar; for Cell-type selectivity of growth inhibition, in words: U251MG versus other cells incl. NIH3T3. The method, then:
(§1) The cell viability assay was performed as previously reported (Zhang X, et al. (2010)). Briefly, a 10 millimolar concentration stock solution in dimethylsulfoxide (DMSO) of the tested molecule was first prepared. Next, the stock solution was diluted down to various working solutions in water. Thus, a formulation of the tested compound in a DMSO/water mixture was used to test for cell viability. (A novel small-molecule disrupts STAT3 SH2 domainphosphotyrosine interactions and STAT3-dependent tumor processes, Biochem Pharmacol 79:1398-1409; Zhao W, Jaganathan S, & Turkson J (2010), A cell-permeable STAT3 SH2 domain mimetic inhibits STAT3 activation and induces antitumor cell effects in vitro. J Biol Chem. 285:35855-35865). Cells (U251MG, MDA-MB-231 or NIH3T3) were obtained from ATCC (Manassas, Va.) and were cultured in 96-well plates at 2,000 cells per well for 24 h and were treated with compounds (5 micromolar concentration) for 72 h. Cell viabilty was determined using CyQuant assay, according to the manufacturer's (Invitrogen, CA, USA) instructions. Relative viability of the treated cells was normalized to the DMSO-treated control cells.

A further test addresses Stat3 (Homo sapiens, UniProt P40763). Nature of the test: Activity against Stat3 (Table 1 grade). The class given is biochemical. Also noted: key: +, active; −, no activity; +/−, poorly active. As to conditions: Table 1/FIG. 2 compound numbering.
The subject of test [3] is pY705STAT3 in U251MG or MDA-MB-231 cells. Nature of the test: Immunoblotting of pY705STAT3 in treated tumor cells. The conditions noted are these: 5 micromolar, U251MG or MDA-MB-231; for Effect on pY705STAT3 / STAT3 activity (immunoblot), in words: 0-24 h, Table 1/FIG. 2 numbering. (In general: A western blot detects proteins with antibodies after separation by electrophoresis.)
Method: Positions of STATs:DNA complexes or proteins in gel are labeled; control lanes (0) represent nuclear extracts or whole-cell lysates prepared from 0.05% DMSO-treated cells. Data are representative of at least three to four independent determinations.
Lysates of equal total protein prepared in the lysis buffer (50 mM Hepes, pH 7.5, 150 mM NaCl, 2 mM EDTA, 1% Triton X-100, 0.1% SDS), were subjected to IP or Western blotting analysis. Antibodies against STAT3, pY705STAT3, Src, pY416Src, Erk1/2, and pT202/Y204Erk1/2 and GAPDH (Cell Signaling Technology, Danvers, Mass.), and anti-β-actin, and HSP105 (Santa Cruz Biotechnology, Dallas, Tex.) are from the designated sources.
Whole-cell lysates were prepared in boiling SDS sample loading buffer to extract total proteins, as reported previously. […] Nitrocellulose membranes were probed with primary antibodies, and the detection of horseradish peroxidase-conjugated secondary antibodies by enhanced chemiluminescence (Amersham) was performed. Antibodies used were monoclonal anti-pYSTAT3 and anti-STAT3 antibodies (Cell Signaling Technology, Danvers, Mass.).

Test [4] has as its system STAT3 tyrosine phosphorylation. The conditions noted are these: Butturini et al. 2011; cited from earlier work.
The test system of test [5] is intracellular glutathione. The conditions noted are these: literature reports, cited from earlier work.
Test [6] concerns MDA-MB-231 breast cancer cells. Nature of the test: CyQuant cell viability/proliferation assay, MDA-MB-231. The class given is cell-based, human. Also noted: key to Activity against 231: +, active; −, no activity; +/−, poorly active. The method, then:
as §1

In test [7] the test system is STAT3 DNA-binding activity. Kind of test: STAT3 DNA-binding activity (EMSA) of nuclear extracts from treated tumor cells. The conditions noted are these: 5 micromolar, time course.
Method: Positions of STATs:DNA complexes or proteins in gel are labeled; control lanes (0) represent nuclear extracts or whole-cell lysates prepared from 0.05% DMSO-treated cells.
Nuclear extract preparations and DNA-binding/electrophoretic mobility shift assay (EMSA) were carried out as previously described (Xu, supra). Nuclear extract preparations and DNA-binding activity/electrophoretic mobility shift assay (EMSA) were carried out as previously described. U251 MG and MDA-MB-231 cells culture were pretreated with different concentrations of the compounds for the indicated period and then harvested for nuclear extract preparation and DNA-binding assay with EMSA analysis. […] Except where indicated, nuclear extracts were pre-incubated with compound for 30 min at room temperature prior to incubation with the radiolabeled probe for 30 min at 30° C. before subjecting to EMSA analysis.
Test [8] relates to normal NIH3T3 mouse fibroblasts. Kind of test: CyQuant cell viability/proliferation assay, NIH3T3. The class given is cell-based. The arrangement: key to Activity against 3T3: +, active; −, no activity; +/−, poorly active. On the procedure: as §1
For test [9], the system named is GSH levels in U251 MG cells. Nature of the test: Glutathione (GSH) levels in U251 MG cells.
Method: Reduced glutathione (GSH) and oxidized glutathione disulfide (GSSG) levels were assayed using a commercially available kit (Cayman Chemical, Ann Arbor, Mich.) and following the manufacturer's instructions.
Setting [10] is: Table 1 grade, Table 1/FIG. 2 compound numbering.

Usually IC50 stands for the midpoint of a concentration-inhibition curve. The term inhibition denotes the share of the control response that was lost under treatment.

T1 sequence (P42227 whole entry): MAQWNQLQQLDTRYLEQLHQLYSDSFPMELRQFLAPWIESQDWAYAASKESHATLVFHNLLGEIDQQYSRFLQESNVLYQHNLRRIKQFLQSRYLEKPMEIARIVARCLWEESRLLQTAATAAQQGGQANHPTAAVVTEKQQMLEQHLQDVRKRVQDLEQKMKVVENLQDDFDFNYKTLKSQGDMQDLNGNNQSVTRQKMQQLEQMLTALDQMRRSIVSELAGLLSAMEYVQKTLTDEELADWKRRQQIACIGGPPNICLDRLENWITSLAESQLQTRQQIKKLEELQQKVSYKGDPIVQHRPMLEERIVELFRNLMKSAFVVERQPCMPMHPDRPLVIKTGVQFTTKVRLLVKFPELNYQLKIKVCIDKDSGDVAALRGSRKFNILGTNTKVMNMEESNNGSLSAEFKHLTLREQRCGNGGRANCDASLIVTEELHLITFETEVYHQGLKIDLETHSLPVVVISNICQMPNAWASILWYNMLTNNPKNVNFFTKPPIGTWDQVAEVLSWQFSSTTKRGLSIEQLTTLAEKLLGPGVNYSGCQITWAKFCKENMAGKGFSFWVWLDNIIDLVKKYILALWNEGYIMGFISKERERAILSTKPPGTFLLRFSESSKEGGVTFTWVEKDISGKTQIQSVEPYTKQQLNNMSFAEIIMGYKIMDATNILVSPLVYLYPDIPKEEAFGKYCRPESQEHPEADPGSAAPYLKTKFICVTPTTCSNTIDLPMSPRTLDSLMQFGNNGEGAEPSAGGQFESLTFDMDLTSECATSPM
Stat3, sequence (P40763 whole entry, species assumed): as the sequence (P42227 whole entry) above, with D760E counted along it

`C=C(C)C(=O)OC1CC(C)C2(O)CCC(C)(C=C3OC(=O)C(CO)=C31)O2` (stereo not shown) [Compound 18]: the “Inhibition of STAT3 DNA-binding activity in vitro (EMSA)” value (shortened to “Inhibition … in vitro (EMSA)”) in [1] is recorded as “moderate to no effect”. For the same compound, the “Activity against U251” value in test [2] is reported as “+/−”. Further, the “Activity against the cell lines, in words” value in test [2] (Table 1/FIG. 2 numbering) is “moderate to weak activity”. On Stat3, the “Activity against Stat3” value is recorded as “−”. In addition, the “Effect on pY705STAT3 / STAT3 activity (immunoblot), in words” value (“Effect on pY705STAT3 / STAT3 activity” for short) in [3] is given as “little effects on pY705STAT3”.

`C/C1=C\[C@H]2OC(=O)[C@@H](C)[C@@H]2CC/C(C)=C/CC1` [dihydrocostunolide]: the “Tyrosine-phosphorylation of STAT3 in cells treated with IL-6” value (“Tyrosine-phosphorylation of STAT3” below) in test [4] was “failed to exert inhibitory action toward STAT3 tyrosine phosphorylation”.

For `C=C1CC[C@H]2C(=C)CC[C@H]3C(=C)C(=O)O[C@@H]3[C@@H]12` [dehydrocostuslactone], the Intracellular glutathione content entry in test [5] is “rapid drop in intracellular glutathione content”. Also, in [4], the “Tyrosine-phosphorylation of STAT3” value is given as “inhibited the tyrosine-phosphorylation of STAT3”.

Consider `C=C(C)C(=O)OC1CC(C)C2(OC)CCC(C)(C=C3OC(=O)C(CO)=C31)O2` (stereo not shown) [Compound 28], for which the “Inhibition … in vitro (EMSA)” value in test [1] is “moderate to no effect”. Besides, the “Activity against U251” value in test [2] is “−”. In addition, the “Activity against the cell lines, in words” value in [2] (Table 1/FIG. 2 numbering) was “moderate to weak activity”. Besides, the “Activity against Stat3” value at Stat3 is recorded as “−”. Further, the “Effect on pY705STAT3 / STAT3 activity” value in test [3] is “little effects on pY705STAT3”.

For the compound `CC=C(C)C(=O)OC1CC(C)C2(O)CCC(C)(C=C3OC(=O)C(COC(C)=O)=C31)O2` (stereo not shown) [Compound 20], in [1], the “Inhibition … in vitro (EMSA)” value is listed as “strong inhibition”. Further, the “Activity against 231” value in test [6] (setting [10]) was “+”. Further, the concentration for half-maximal inhibition (IC50) in test [2] (72-h treatment, Table 1/FIG. 2 numbering, read-out: IC50 for the inhibition of U251MG cell viability) was 4.3 µM. Moreover, in test [2] (Table 1/FIG. 2 numbering), the “Cell-type selectivity of growth inhibition, in words” value is “selective against the growth of human glioma U251MG cells”. Further, the “Inhibition of STAT3 DNA-binding activity in treated cells (EMSA)” value in test [7] is listed as “early inhibition at 15-30 min”. The “Activity against Stat3” value on Stat3 is “+”. Moreover, in [3], the “Effect on pY705STAT3 / STAT3 activity” value is reported as “early inhibition at 15-30 min”. Besides, in test [8] (setting [10]), the “Activity against 3T3” value is “+/−”.

On to `CC=C(C)C(=O)OC1CC(C)C2(O)CCC(C)(C=C3OC(=O)C(CO)=C31)O2` (stereo not shown) [Compound 19], for which, in [1], the “Inhibition … in vitro (EMSA)” value is “moderate to no effect”. Further, the “Activity against U251” value in test [2] is given as “−”. In addition, in [2] (Table 1/FIG. 2 numbering), the “Activity against the cell lines, in words” value is reported as “moderate to weak activity”. The “Activity against Stat3” value on Stat3 is reported as “−”. Also, the “Effect on pY705STAT3 / STAT3 activity” value in [3] was “little effects on pY705STAT3”.

As to `C=C1C(=O)O[C@@H]2/C=C(\C)CC/C=C(\C)CC[C@@H]12` [costunolide, reference compound], the inhibition at 5 µM in test [6] (Homo sapiens, MDA-MB-231, at 5 μM, 72 h, Table 3 numbering (isolates 1-16)) was 10.5%; in [2] (Homo sapiens, U-251, at 5 μM, 72 h, Table 3 numbering (isolates 1-16)), 17.5%; in test [8] (Mus musculus, NIH3T3, at 5 μM, 72 h, Table 3 numbering (isolates 1-16), read-out: NIH-3T3 % inhibition), 41.6%. Further, the figures for the Intracellular glutathione content entry in test [5] and in test [5] (listed as costinulide) were “rapid drop in intracellular glutathione content” and “suppress the intracellular glutathione (GSH) pool”, respectively. Moreover, the “Cell-type selectivity of growth inhibition, in words” value in test [2] (Table 1/FIG. 2 numbering) was “generally toxic to U251MG and normal NIH3T3”; in test [2] (Table 1/FIG. 2 numbering, listed as costinulide), “non-specfically active against glioma U251MG and normal NIH3T3 mouse fibroblasts”. The “Effect on GSH levels” value in [9] is given as “suppressed GSH levels”. In test [4], the “Tyrosine-phosphorylation of STAT3” value is “inhibited the tyrosine-phosphorylation of STAT3”. In test [3] (listed as costinulide), the “Effect on pY705STAT3 / STAT3 activity” value was “little effect on STAT3 activity; also recorded: minimal effects on pY705STAT3”. Also, the “Inhibition of pY705STAT3 (immunoblot), in words” value in test [3] (Table 3 numbering (isolates 1-16)) is on record as “negligible or weak”.
